Source: the C3SDB collision cross section collection

details: [M+H-H2O]+; instrument: TW; calibrated with polyalanine and drug standards

SMILES | collision cross section (N2)
C[C@@H](N)[C@@H](O)c1ccccc1 [1R,2S-PHENYLPROPYLAMINE] | 127.8 Å²
CC1(C)CC2C1CCC1(C)OC1CCC2(C)O (stereo unspecified) [2-HYDROXY-5 (6)EPOXY-TETRAHYDROCARYOPHYLLENE] | 150.8 Å²
CC(C)CCC[C@@H](C)[C@H]1CC[C@H]2[C@@H]3CC[C@H]4C[C@@H](O)CC[C@]4(C)[C@H]3CC[C@]12C [5alpha-CHOLESTANOL] | 209 Å²

same assay, conditions: [M+H]+; instrument: TW; calibrated with polyalanine and drug standards

SMILES | collision cross section (N2)
CC1(C)C2CC(=O)[C@]3(C)C(CC[C@@]4(C)[C@H](c5ccoc5)OC(=O)[C@H]5O[C@]543)[C@@]2(C)C(=O)C[C@H]1O (stereo partly specified) [1,7-DIDEACETOXY-1,7-DIOXO-3-DEACETYLKHIVORIN] | 199.7 Å²
CC(=O)O[C@@H]1CC(=O)[C@@]2(C)C(CC(=O)[C@]3(C)C2CC[C@@]2(C)[C@H](c4ccoc4)OC(=O)C4OC423)C1(C)C (stereo partly specified) [1,7-DIDEACETOXY-1,7-DIOXOKHIVORIN] | 210.9 Å²
COc1ccccc1N1CCNCC1 [1-(2-METHOXYPHENYL)PIPERAZINE] | 140.5 Å²
O=C(/C=C/c1ccccc1)c1ccc(O)cc1O [2',4'-DIHYDROXYCHALCONE] | 153.5 Å²
CCOc1ccc(C(=O)c2ccc(OC)c(O)c2O)cc1 [2,3-DIHYDROXY-4-METHOXY-4'-ETHOXYBENZOPHENONE] | 164 Å²
COC1=CC(=O)C=C(OC)C1=O [2,6-DIMETHOXYQUINONE] | 129.5 Å²
S=c1[nH]c2ccccc2s1 [2-MERCAPTOBENZOTHIAZOLE] | 126.4 Å²
COc1ccc2oc3ccccc3c(=O)c2c1 [2-METHOXYXANTHONE] | 142.4 Å²
Cc1[nH]c2ccccc2c1CN(C)C [2-METHYL GRAMINE] | 140.6 Å²
O=c1cccc2ccc(O)c(O)c2c1O [3,4,6-trihydroxy-5H-benzo[a]cyclohepten-5-one] | 134.7 Å²
COc1ccc2c(=O)c(OC)c(-c3ccccc3)oc2c1 [3,7-DIMETHOXYFLAVONE] | 160.7 Å²
CC(=O)OC1CC[C@@]2(C)C(CC[C@H]3[C@@H]4CC=C(C(C)=O)[C@@]4(C)C(=O)C[C@@H]32)C1 (stereo partly specified) [3-ACETOXYPREGN-16-EN-12,20-DIONE] | 189.5 Å²
NCCc1ccc(O)c(O)c1 [3-HYDROXYTYRAMINE] | 127.7 Å²
C=C1C2CC[C@@]3(C)[C@H](c4ccoc4)OC(=O)C[C@]13O[C@H]1CC(O)C(C)(C)C(CC(=O)OC)[C@@]21C (stereo partly drawn) [3alpha-HYDROXY-3-DEOXYANGOLENSIC ACID METHYL ESTER] | 204.6 Å²
O=C(/C=C/c1ccccc1)c1ccc(O)cc1 [4'-HYDROXYCHALCONE] | 150.8 Å²
COc1ccc(-c2cc(=O)c3ccccc3o2)cc1 [4'-METHOXYFLAVONE] | 152.1 Å²
CCCCOc1cc(CC2CNC(=O)N2)ccc1OC (stereo unspecified) [4-(3-BUTOXY-4-METHOXYBENZYL)IMIDAZOLIDIN-2-ONE] | 174 Å²
Cc1cc(O)cc(=O)o1 [4-HYDROXY-6-METHYLPYRAN-2-ONE] | 119.8 Å²
O=C(O)CCCN1C(=O)c2cccc3cccc(c23)C1=O [4-NAPHTHALIMIDOBUTYRIC ACID] | 156.5 Å²
Cc1cc(=O)oc2cc(O)cc(O)c12 [5,7-DIHYDROXY-4-METHYLCOUMARIN] | 134.4 Å²
O=c1cc(-c2ccc(O)cc2)oc2ccc(O)cc12 [6,4'-DIHYDROXYFLAVONE] | 152.7 Å²
NC(=O)c1ccc(N)nc1 [6-AMINONICOTINAMIDE] | 125.7 Å²

same assay, conditions: [M+Na]+; instrument: TW; calibrated with polyalanine and drug standards

SMILES | collision cross section (N2)
CCCCCCCCCCCCCCCC(=O)OCC(O)CO (stereo unspecified) [1-MONOPALMITIN] | 195.9 Å²
